Measured values from PubChem BioAssay (NCI).
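How tested: cells in 96-well plates exposed to compound for 48 hours at five concentrations. TGI denotes the concentration required for complete inhibition of growth.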

Experiments:
Experiment in all cases: growth of human tumour cells (NCI), 48 h
PC-3 prostate = test system: PC-3 prostate
MDA-N = test system: MDA-N
MALME-3M melanoma = test system: MALME-3M melanoma
HS 578T breast = test system: HS 578T breast
M14 melanoma = test system: M14 melanoma
SK-MEL-2 melanoma = test system: SK-MEL-2 melanoma
HCC-2998 colon = test system: HCC-2998 colon
SR leukemia = test system: SR leukemia
K-562 leukemia = test system: K-562 leukemia
KM12 colon = test system: KM12 colon

CN(C1=NCCO1)c1cccc2ccccc12
TGI (PC-3 prostate): > 10 µM | TGI (MDA-N): > 10 µM | TGI (MALME-3M melanoma): > 10 µM | TGI (HS 578T breast): > 10 µM | TGI (M14 melanoma): > 10 µM | TGI (SK-MEL-2 melanoma): > 10 µM | TGI (HCC-2998 colon): > 10 µM | TGI (SR leukemia): > 10 µM | TGI (K-562 leukemia): > 10 µM | TGI (KM12 colon): > 10 µM

Brc1cccc(/C=C/CN2CCN(CCOC(c3ccccc3)c3ccccc3)CC2)c1
TGI (PC-3 prostate): 26.5 µM | TGI (MDA-N): 32.9 µM | TGI (MALME-3M melanoma): 31.5 µM | TGI (HS 578T breast): 52 µM | TGI (M14 melanoma): 27.1 µM | TGI (SK-MEL-2 melanoma): 33.6 µM | TGI (HCC-2998 colon): 21.3 µM | TGI (SR leukemia): 28.3 µM | TGI (K-562 leukemia): 28.6 µM | TGI (KM12 colon): 31.3 µM

CNC(=S)/C(=N\Nc1nc[nH]c1C(N)=O)C(N)=S
TGI (PC-3 prostate): > 100 µM | TGI (MDA-N): > 63 µM | TGI (MALME-3M melanoma): > 54.8 µM | TGI (HS 578T breast): > 81.8 µM | TGI (M14 melanoma): > 100 µM | TGI (SK-MEL-2 melanoma): > 82.3 µM | TGI (HCC-2998 colon): 22.8 µM | TGI (SR leukemia): 0.468 µM | TGI (KM12 colon): 24.4 µM

CCOC(=O)C1(C(=O)OCC)C[C@]23OCCC(=O)[C@H]2[C@H]2C(=O)OC(C)(C)O[C@]23C1
TGI (PC-3 prostate): > 100 µM | TGI (MDA-N): > 100 µM | TGI (MALME-3M melanoma): > 100 µM | TGI (HS 578T breast): > 100 µM | TGI (M14 melanoma): > 100 µM | TGI (SK-MEL-2 melanoma): > 100 µM | TGI (HCC-2998 colon): > 100 µM | TGI (SR leukemia): > 100 µM | TGI (KM12 colon): > 100 µM

O=c1c2ccccc2nc2n1NC(c1c(Cl)cccc1Cl)N2c1cccc(Cl)c1 (stereo not drawn)
TGI (PC-3 prostate): 28.1 µM | TGI (MDA-N): > 100 µM | TGI (MALME-3M melanoma): 29.7 µM | TGI (HS 578T breast): > 100 µM | TGI (M14 melanoma): 66.6 µM | TGI (SK-MEL-2 melanoma): > 100 µM | TGI (HCC-2998 colon): > 100 µM | TGI (SR leukemia): > 100 µM | TGI (K-562 leukemia): > 100 µM | TGI (KM12 colon): > 100 µM

CCOc1c2ccsc2c(OCC)c2ccsc12
TGI (PC-3 prostate): > 100 µM | TGI (MDA-N): 4.83 µM | TGI (MALME-3M melanoma): > 100 µM | TGI (HS 578T breast): > 73.7 µM | TGI (M14 melanoma): > 100 µM | TGI (SK-MEL-2 melanoma): > 100 µM | TGI (HCC-2998 colon): > 75.5 µM | TGI (SR leukemia): > 100 µM | TGI (K-562 leukemia): > 100 µM | TGI (KM12 colon): > 100 µM

COc1ccc(OC)c(C2CCc3nc4nc(N)nc(N)c4cc3C2)c1 (stereo not drawn)
TGI (PC-3 prostate): 11.5 µM | TGI (MDA-N): 5.04 µM | TGI (MALME-3M melanoma): 3.57 µM | TGI (HS 578T breast): 16.1 µM | TGI (M14 melanoma): 3.44 µM | TGI (SK-MEL-2 melanoma): 4.35 µM | TGI (HCC-2998 colon): 3.16 µM | TGI (SR leukemia): 7.06 µM | TGI (K-562 leukemia): 6.35 µM | TGI (KM12 colon): 5.14 µM

COc1ccc(/C=C2\C=Cc3ccccc32)cc1OC
TGI (PC-3 prostate): > 100 µM | TGI (MDA-N): > 100 µM | TGI (MALME-3M melanoma): > 100 µM | TGI (HS 578T breast): 89.6 µM | TGI (M14 melanoma): > 100 µM | TGI (SK-MEL-2 melanoma): > 100 µM | TGI (HCC-2998 colon): > 100 µM | TGI (SR leukemia): > 100 µM | TGI (K-562 leukemia): > 100 µM | TGI (KM12 colon): > 100 µM

C=C(O)c1ccccc1C#Cc1ccccc1C(=O)OC
TGI (PC-3 prostate): > 10 µM | TGI (MDA-N): > 10 µM | TGI (MALME-3M melanoma): > 10 µM | TGI (HS 578T breast): > 10 µM | TGI (M14 melanoma): > 10 µM | TGI (SK-MEL-2 melanoma): > 10 µM | TGI (HCC-2998 colon): > 10 µM | TGI (SR leukemia): > 10 µM | TGI (K-562 leukemia): > 10 µM | TGI (KM12 colon): > 10 µM

OC1(c2ccccc2)CC2CCC(C1)N2CCc1ccccc1 (stereo not drawn)
TGI (PC-3 prostate): > 100 µM | TGI (MDA-N): > 100 µM | TGI (MALME-3M melanoma): > 100 µM | TGI (HS 578T breast): 80.6 µM | TGI (M14 melanoma): > 100 µM | TGI (SK-MEL-2 melanoma): > 100 µM | TGI (HCC-2998 colon): > 100 µM | TGI (SR leukemia): > 100 µM | TGI (K-562 leukemia): > 100 µM | TGI (KM12 colon): > 100 µM

Cc1cc2nc3n[nH]c(N)c3nc2cc1C
TGI (PC-3 prostate): > 100 µM | TGI (MDA-N): > 100 µM | TGI (MALME-3M melanoma): > 100 µM | TGI (HS 578T breast): > 100 µM | TGI (M14 melanoma): > 100 µM | TGI (SK-MEL-2 melanoma): > 100 µM | TGI (HCC-2998 colon): > 100 µM | TGI (SR leukemia): > 100 µM | TGI (K-562 leukemia): > 100 µM | TGI (KM12 colon): > 100 µM

C/C(=N/NC(=S)Nc1ccccc1Cl)c1ccccn1
TGI (PC-3 prostate): 27.3 µM | TGI (MDA-N): 19.7 µM | TGI (MALME-3M melanoma): 13 µM | TGI (HS 578T breast): 40.2 µM | TGI (M14 melanoma): 3.42 µM | TGI (SK-MEL-2 melanoma): 9.47 µM | TGI (HCC-2998 colon): 18.1 µM | TGI (SR leukemia): 3.22 µM | TGI (K-562 leukemia): 3.25 µM | TGI (KM12 colon): 18.7 µM

CN(C)c1nc(N(C)C)nc(N(C)C)n1
TGI (PC-3 prostate): > 150 µM | TGI (MDA-N): > 150 µM | TGI (MALME-3M melanoma): > 150 µM | TGI (HS 578T breast): > 150 µM | TGI (M14 melanoma): > 150 µM | TGI (SK-MEL-2 melanoma): > 150 µM | TGI (HCC-2998 colon): > 123 µM | TGI (SR leukemia): > 150 µM | TGI (K-562 leukemia): > 150 µM | TGI (KM12 colon): > 150 µM

O=C(c1ccccc1)c1ccc(C(c2c(O)c3ccccc3oc2=O)c2c(O)c3ccccc3oc2=O)cc1
TGI (PC-3 prostate): > 74.5 µM | TGI (MDA-N): > 71.7 µM | TGI (MALME-3M melanoma): 37.6 µM | TGI (HS 578T breast): 64.5 µM | TGI (M14 melanoma): 63.3 µM | TGI (SK-MEL-2 melanoma): > 71.3 µM | TGI (HCC-2998 colon): 50.4 µM | TGI (SR leukemia): 59.3 µM | TGI (K-562 leukemia): > 72.1 µM | TGI (KM12 colon): 37.1 µM

Cn1c(=O)oc2cc(C(=O)CSC(=S)N3CCCCCC3)ccc21
TGI (PC-3 prostate): > 100 µM | TGI (MDA-N): > 100 µM | TGI (MALME-3M melanoma): > 100 µM | TGI (HS 578T breast): > 100 µM | TGI (M14 melanoma): > 100 µM | TGI (SK-MEL-2 melanoma): > 100 µM | TGI (HCC-2998 colon): > 100 µM | TGI (SR leukemia): > 100 µM | TGI (K-562 leukemia): > 100 µM | TGI (KM12 colon): > 100 µM
